Source: ChEMBL document CHEMBL3091438, “Discovery and characterisation of hydrazines as inhibitors of the immune suppressive enzyme, indoleamine 2,3-dioxygenase 1 (IDO1)” (Bioorg Med Chem, 2013)

Assays:
[1] = biological target: T1, Indoleamine 2,3-dioxygenase 1 (Homo sapiens, UniProt P14902); experiment: Inhibition of recombinant human IDO1 expressed in Escherichia coli EC538 using L-tryptophan as substrate at 0.1 mM after 1 hr relative to control
Target sequence in this assay (P14902 whole entry, looked up): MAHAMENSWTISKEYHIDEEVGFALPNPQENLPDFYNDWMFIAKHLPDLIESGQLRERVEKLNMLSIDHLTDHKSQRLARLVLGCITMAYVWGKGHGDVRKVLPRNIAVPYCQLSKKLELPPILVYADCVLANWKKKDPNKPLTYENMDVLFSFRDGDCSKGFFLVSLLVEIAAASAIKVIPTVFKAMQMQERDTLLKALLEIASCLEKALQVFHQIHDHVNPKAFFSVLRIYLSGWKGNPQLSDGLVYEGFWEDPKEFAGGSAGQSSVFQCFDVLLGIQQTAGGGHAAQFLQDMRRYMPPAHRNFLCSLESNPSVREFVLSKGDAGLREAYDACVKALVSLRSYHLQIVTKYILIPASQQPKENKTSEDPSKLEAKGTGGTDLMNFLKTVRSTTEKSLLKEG

[2] = biological target: T1, Indoleamine 2,3-dioxygenase 1; experiment: Inhibition of recombinant human IDO1 expressed in Escherichia coli EC538 using L-tryptophan as substrate after 1 hr
Target sequence in this assay (P14902 whole entry): as the sequence (P14902 whole entry, looked up) above

[3] = Cytotoxicity against mouse LLTC cells at IC50 by MTT assay; assay type: cell-based
[4] = biological target: Indoleamine 2,3-dioxygenase 1 (Mus musculus, UniProt P28776); experiment: Inhibition of mouse IDO1 expressed in mouse LLTC cells using L-tryptophan as substrate after 24 hrs; assay type: cell-based
[5] = biological target: T1, Indoleamine 2,3-dioxygenase 1; experiment: Inhibition of human IDO1 expressed in mouse LLTC cells using L-tryptophan as substrate after 24 hrs; assay type: cell-based
Target sequence in this assay (P14902 whole entry): as the sequence (P14902 whole entry, looked up) above

[6] = biological target: T1, Indoleamine 2,3-dioxygenase 1; experiment: Ratio of 2-hydrazinobenzothiazole IC50 to compound IC50 for recombinant human IDO1
Target sequence in this assay (P14902 whole entry, looked up): as above

Chain of Indoleamine 2,3-dioxygenase 1 (Mus musculus, UniProt P28776) (P28776 whole entry): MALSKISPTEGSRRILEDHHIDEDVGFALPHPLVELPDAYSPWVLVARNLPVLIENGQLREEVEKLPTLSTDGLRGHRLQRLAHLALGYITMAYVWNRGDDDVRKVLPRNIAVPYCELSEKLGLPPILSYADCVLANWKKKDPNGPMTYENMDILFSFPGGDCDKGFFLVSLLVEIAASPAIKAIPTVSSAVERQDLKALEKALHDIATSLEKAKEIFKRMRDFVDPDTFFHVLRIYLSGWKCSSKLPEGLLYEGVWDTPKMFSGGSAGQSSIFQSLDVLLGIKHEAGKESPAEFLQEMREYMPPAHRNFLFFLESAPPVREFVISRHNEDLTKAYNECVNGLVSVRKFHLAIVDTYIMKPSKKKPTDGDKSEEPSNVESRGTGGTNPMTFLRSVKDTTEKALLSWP

NNc1nc2cc(C(F)(F)F)ccc2s1
inhibition [1]: 46%

Sc1nc2ccccc2s1 [2-MERCAPTOBENZOTHIAZOLE]
IC50 [2]: 126 µM

NNc1nc2ccccc2s1
Activity [3]: Non-toxic | IC50 [4]: 50.5 µM | IC50 [5]: 62.3 µM | inhibition [1]: 91% | IC50 [2]: 8 µM

NNc1nc2cc(Cl)ccc2s1
inhibition [1]: 86% | IC50 [2]: 1.5 µM

N#CCCN(N)c1nc2ccccc2s1
inhibition [1]: 2%

O=C(O)/C=N/Nc1nc2ccccc2s1
inhibition [1]: 13%

NNC(=O)c1ccc2nc(NN)sc2c1
inhibition [1]: -1%

c1ccc2sc(SSc3nc4ccccc4s3)nc2c1 [BENZOTHIAZYL DISULFIDE]
IC50 [2]: > 500 µM

NNc1ccccc1 [PHENYLHYDRAZINE]
Activity [3]: Non-toxic | IC50 [4]: 0.2 µM | IC50 [5]: 1.3 µM | Ratio IC50 [6]: 32 | IC50 [2]: 0.25 µM

c1ccc2scnc2c1 [BENZO[D]THIAZOLE]
IC50 [2]: 652 µM

CC(C)=NNc1nc2ccccc2s1
inhibition [1]: 30%

Nc1nc2ccc([N+](=O)[O-])cc2s1
IC50 [2]: > 500 µM

Cc1ccc2nc(NN)sc2c1
inhibition [1]: 37%
